# Source: patent publication US20230382925A1, “MODULATORS OF CYSTIC FIBROSIS TRANSMEMBRANE CONDUCTANCE REGULATOR” (VERTEX PHARMACEUTICALS INCORPORATED, priority 2020, published 2023)
# Like-named read-outs stand apart in the source and are kept apart here.
# Biological target: CFTR (Homo sapiens, UniProt P13569)
# Experiment: Membrane Potential Dye, Enteroid Assay B
# Assay type: cell-based
# Procedure: Base medium (ADF+++) consisted of Advanced […], 2 mM Glutamax, 10 mM HEPES, 1 μg/mL penicillin/streptomycin.
# Intestinal enteroid maintenance medium (IEMMN) consisted of ADF+++, 1× B27 supplement, 1× N2 supplement, 1.25 mM N-acetyl cysteine, 10 mM Nicotinamide, 50 ng/mL hEGF, 10 nM Gastrin, 1 μg/mL hR-spondin-1, 100 ng/mL hNoggin, TGF-b type 1 inhibitor A-83-01, 100 μg/mL Primocin, 10 μM P38 MAPK inhibitor SB202190.
# Bath 1 Buffer consisted of 1 mM MgCl2, 160 mM NaCl, 4.5 mM KCl, 10 mM HEPES, 10 mM Glucose, 2 mM CaCl2).
# Chloride Free Buffer consisted of 1 mM Magnesium Gluconate, 2 mM Calcium Gluconate, 4.5 mM Potassium Gluconate, 160 mM Sodium Gluconate, 10 mM HEPES, 10 mM Glucose.
# Bath 1 Dye Solution consisted of Bath 1 Buffer, 0.04% Pluronic F127, 20 μM Methyl Oxonol, 30 μM CaCCinh-A01, 30 μM Chicago Sky Blue.
# Chloride Free Dye Solution consisted of Chloride Free Buffer, 0.04% Pluronic F127, 20 μM Methyl Oxonol, 30 μM CaCCinh-A01, 30 μM Chicago Sky Blue.
# Chloride Free Dye Stimulation Solution consisted of Chloride Free Dye Solution, 10 μM forskolin, 100 μM IBMX, and 300 nM Compound III.
# Human intestinal epithelial enteroid cells were obtained from the Hubrecht Institute for Developmental Biology and Stem Cell Research, Utrecht, The Netherlands and expanded in T-Flasks as previously described (Dekkers J F, Wiegerinck C L, de Jonge H R, Bronsveld I, Janssens H M, de Winter-de Groot K M, Brandsma A M, de Jong N W M, Bijvelds M J C, Scholte B J, Nieuwenhuis E E S, van den Brink S, Clevers H, van der Ent C K, Middendorp S and M Beekman J M. A functional CFTR assay using primary cystic fibrosis intestinal organoids. Nat Med. 2013 July; 19(7):939-45.).
# 3. Enteroid Cell Harvesting and Seeding
# Cells were recovered in cell recovery solution, collected by centrifugation at 650 rpm for 5 min at 4° C., resuspended in TrypLE and incubated for 5 min at 37° C. Cells were then collected by centrifugation at 650 rpm for 5 min at 4° C. and resuspended in IEMM containing 10 μM ROCK inhibitor (RI). The cell suspension was passed through a 40 μm cell strainer and resuspended at 1×10^6 cells/mL in IEMM containing 10 μM RI. Cells were seeded at 5000 cells/well into multi-well plates and incubated for overnight at 37° C., 95% humidity and 5% CO2 prior to assay.
# 5. Membrane Potential Dye, Enteroid Assay B
# Enteroid cells were incubated with test compound in IEMM for 18-24 hours at 37° C., 95% humidity and 5% CO2. […] Briefly, cells were washed 5 times in Bath 1 Buffer. Bath 1 Dye Solution was added and the cells were incubated for 25 min at room temperature. Following dye incubation, cells were washed 3 times in Chloride Free Dye Solution. Chloride transport was initiated by addition of Chloride Free Dye Stimulation Solution and the fluorescence signal was read for 15 min. […] Chloride transport was then expressed as a percentage of the chloride transport following treatment with 1 μM (14S)-8-[3-(2-{Dispiro[2.0.2.1]heptan-7-yl}ethoxy)-1H-pyrazol-1-yl]-12,12-dimethyl-2λ^6-thia-3,9,11,18,23-pentaazatetracyclo[17.3.1.111,14.05,10]tetracosa-1(22),5,7,9,19(23),20-hexaene-2,2,4-trione, 3 μM (R)-1-(2,2-difluorobenzo[d][1,3]dioxol-5-yl)-N-(1-(2,3-dihydroxypropyl)-6-fluoro-2-(1-hydroxy-2-methylpropan-2-yl)-1H-indol-5-yl)cyclopropanecarboxamide and 300 nM acute N-[2,4-bis(1,1-dimethylethyl)-5-hydroxyphenyl]-1,4-dihydro-4-oxoquinoline-3-carboxamide triple combination control (% Activity).
# [1] = Table 10, read-out: Ent. B EC50
# Chain of CFTR (P13569 with tags, fused parts or gaps DEL508-508): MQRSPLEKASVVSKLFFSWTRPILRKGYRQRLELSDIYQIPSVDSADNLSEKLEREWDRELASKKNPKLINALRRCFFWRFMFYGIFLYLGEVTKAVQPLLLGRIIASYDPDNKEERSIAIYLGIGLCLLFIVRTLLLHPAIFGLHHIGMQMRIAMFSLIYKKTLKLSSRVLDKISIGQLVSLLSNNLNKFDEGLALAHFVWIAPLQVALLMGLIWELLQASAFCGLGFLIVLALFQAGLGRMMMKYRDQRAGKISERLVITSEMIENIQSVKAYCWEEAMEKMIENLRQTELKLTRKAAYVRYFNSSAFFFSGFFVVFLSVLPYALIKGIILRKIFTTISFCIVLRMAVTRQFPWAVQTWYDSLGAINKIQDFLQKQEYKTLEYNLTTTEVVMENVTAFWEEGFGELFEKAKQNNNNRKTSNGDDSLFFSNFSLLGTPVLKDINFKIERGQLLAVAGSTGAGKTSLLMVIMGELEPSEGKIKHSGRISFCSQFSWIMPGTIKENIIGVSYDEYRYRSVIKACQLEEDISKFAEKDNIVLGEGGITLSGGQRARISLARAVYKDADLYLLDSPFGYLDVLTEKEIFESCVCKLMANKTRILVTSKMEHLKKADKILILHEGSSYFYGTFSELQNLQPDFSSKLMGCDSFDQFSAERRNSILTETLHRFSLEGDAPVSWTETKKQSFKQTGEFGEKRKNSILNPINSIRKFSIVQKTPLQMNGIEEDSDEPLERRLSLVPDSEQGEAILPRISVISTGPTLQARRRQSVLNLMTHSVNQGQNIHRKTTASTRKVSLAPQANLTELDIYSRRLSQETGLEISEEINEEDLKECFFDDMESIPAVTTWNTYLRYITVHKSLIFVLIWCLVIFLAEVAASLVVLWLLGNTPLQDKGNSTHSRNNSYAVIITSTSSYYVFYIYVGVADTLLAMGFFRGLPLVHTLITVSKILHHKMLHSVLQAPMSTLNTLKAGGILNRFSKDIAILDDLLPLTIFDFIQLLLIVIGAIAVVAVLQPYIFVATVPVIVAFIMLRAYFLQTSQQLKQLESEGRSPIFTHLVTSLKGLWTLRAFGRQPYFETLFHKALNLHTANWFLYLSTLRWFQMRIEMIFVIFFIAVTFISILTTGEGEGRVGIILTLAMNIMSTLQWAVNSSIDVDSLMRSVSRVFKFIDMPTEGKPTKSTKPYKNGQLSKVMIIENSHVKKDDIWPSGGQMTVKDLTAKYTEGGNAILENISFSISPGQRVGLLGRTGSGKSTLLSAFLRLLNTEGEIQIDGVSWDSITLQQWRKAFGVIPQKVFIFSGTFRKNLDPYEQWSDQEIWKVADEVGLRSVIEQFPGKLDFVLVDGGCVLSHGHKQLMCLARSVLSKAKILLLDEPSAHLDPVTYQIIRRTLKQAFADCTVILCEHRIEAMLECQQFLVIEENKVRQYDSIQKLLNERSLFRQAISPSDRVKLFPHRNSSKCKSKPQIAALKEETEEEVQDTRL
SMILES,Ent. B Max Activity (%) (Table 9),"EC50 (Table 9, read-out: Ent. B EC50) [µM]",also measured
"Cc1cccc(C)c1-c1cc2nc(n1)NS(=O)(=O)c1cccc(c1)C(=O)N([C@@H]1CC[C@@H]1C1CC1)[C@H](CC(C)(C)C)CO2 (racemic) [Compound 149, (11R)-12-(2-Cyclopropylcyclobutyl)-6-(2,6-dimethylphenyl)-11-(2,2-dimethylpropyl)-2,2-dioxo-9-oxa-2λ^6-thia-3,5,12,19-tetrazatricyclo[12.3.1.14,8]nonadeca-1(18),4(19),5,7,14,16-hexaen-13-one]",,,Ent. B Max Activity (%) (Table 10): +++ (+++ is >60%); EC50 [1]: < 1 µM
"[H][C@]1(N2C(=O)c3cccc(c3)S(=O)(=O)Nc3nc(cc(-c4c(C)cccc4C)n3)OC[C@H]2CCC(C)C)C[C@@]2(C[C@H](C(C)(C)O)C2)C1 (single isomer, unassigned) [Compound 4]",,,Ent. B Max Activity (%) (Table 10): +++ (+++ is >60%); EC50 [1]: < 1 µM
"[H][C@]1(N2C(=O)c3cccc(c3)S(=O)(=O)Nc3nc(cc(-c4c(C)cccc4C)n3)OC[C@H]2CCC(C)C)C[C@@]2(C[C@H](C(C)(C)O)C2)C1 (single isomer, unassigned) [Compound 5]",,,Ent. B Max Activity (%) (Table 10): +++ (+++ is >60%); EC50 [1]: < 1 µM
"Cc1cccc(C)c1-c1cc2nc(n1)NS(=O)(=O)c1cccc(c1)C(=O)N(C1CC3(C1)CC(C(C)(C)O)C3)[C@H](CCC(C)(C)C)CO2 (single isomer, unassigned) [Compound 8]",,,Ent. B Max Activity (%) (Table 10): +++ (+++ is >60%); EC50 [1]: < 1 µM
"Cc1cccc(C)c1-c1cc2nc(n1)NS(=O)(=O)c1cccc(c1)C(=O)N(C1CC3(C1)CC(C(C)(C)O)C3)[C@H](CCC(C)(C)C)CO2 (single isomer, unassigned) [Compound 9]",,,Ent. B Max Activity (%) (Table 10): +++ (+++ is >60%); EC50 [1]: < 1 µM
"Cc1cccc(C)c1-c1cc2nc(n1)NS(=O)(=O)c1cccc(c1)C(=O)N(C1CCN(C(=O)OC(C)C)C1)[C@H](CC(C)C)CO2 (single isomer, unassigned) [Compound 38]",,,Ent. B Max Activity (%): ++ (++ is 30-60%); EC50 (read-out: Ent. B EC50): < 1 µM
"Cc1cccc(C)c1-c1cc2nc(n1)NS(=O)(=O)c1cccc(c1)C(=O)N(C1CCN(C(=O)OC(C)C)C1)[C@H](CC(C)C)CO2 (single isomer, unassigned) [Compound 39]",,,Ent. B Max Activity (%): +++ (+++ is >60%); EC50 (read-out: Ent. B EC50): < 1 µM
"Cc1cccc(C)c1-c1cc2nc(n1)NS(=O)(=O)c1cccc(c1)C(=O)N([C@H]1C[C@@H](OC(C)C)C1)[C@H](CC(C)C)CO2 (single isomer, unassigned) [Compound 45]",+++ (+++ is >60%),< 1,
"Cc1cccc(C)c1-c1cc2nc(n1)NS(=O)(=O)c1cccc(c1)C(=O)N([C@H]1C[C@@H](OC(C)C)C1)[C@H](CC(C)C)CO2 (single isomer, unassigned) [Compound 46]",+++ (+++ is >60%),< 1,
"COC(=O)NC1CC(N2C(=O)c3cccc(c3)S(=O)(=O)Nc3nc(cc(-c4c(C)cccc4C)n3)OC[C@H]2CC2(C(F)(F)F)CC2)C1 (single isomer, unassigned) [Compound 53]",+++ (+++ is >60%),< 1,
"Cc1cccc(C)c1-c1cc2nc(n1)NS(=O)(=O)c1cccc(c1)C(=O)N([C@H]1C[C@@H](NC(=O)OC(C)(C)C)C1)[C@H](CC1(C(F)(F)F)CC1)CO2 (single isomer, unassigned) [Compound 54]",+++ (+++ is >60%),< 1,
"Cc1cccc(C)c1-c1cc2nc(n1)NS(=O)(=O)c1cccc(c1)C(=O)N([C@H]1C[C@@H](NC(=O)OC(C)(C)C)C1)[C@H](CC1(C(F)(F)F)CC1)CO2 (single isomer, unassigned) [Compound 55]",+++ (+++ is >60%),< 1,
"Cc1cccc(C)c1-c1cc2nc(n1)NS(=O)(=O)c1cccc(c1)C(=O)N([C@H]1C[C@@H](N)C1)[C@H](CC1(C(F)(F)F)CC1)CO2 (single isomer, unassigned) [Compound 56]",+++ (+++ is >60%),< 1,
"Cc1cccc(C)c1-c1cc2nc(n1)NS(=O)(=O)c1cccc(c1)C(=O)N([C@H]1C[C@H](N)C1)[C@H](CC1(C(F)(F)F)CC1)CO2 (single isomer, unassigned) [Compound 57]",+++ (+++ is >60%),< 1,
"COC(=O)NC1CC(N2C(=O)c3cccc(c3)S(=O)(=O)Nc3nc(cc(-c4c(C)cccc4C)n3)OC[C@H]2CC2(C(F)(F)F)CC2)C1 (single isomer, unassigned) [Compound 58]",+++ (+++ is >60%),< 1,
"Cc1cccc(C)c1-c1cc2nc(n1)NS(=O)(=O)c1cccc(c1)C(=O)N(C1CC(NC(=O)OC(C)C)C1)[C@H](CC1(C(F)(F)F)CC1)CO2 (single isomer, unassigned) [Compound 59]",+++ (+++ is >60%),< 1,
"Cc1cccc(C)c1-c1cc2nc(n1)NS(=O)(=O)c1cccc(c1)C(=O)N(C1CC(NC(=O)OC(C)C)C1)[C@H](CC1(C(F)(F)F)CC1)CO2 (single isomer, unassigned) [Compound 60]",+++ (+++ is >60%),< 1,
"Cc1cccc(C)c1-c1cc2nc(n1)NS(=O)(=O)c1cccc(c1)C(=O)N(C1CC(N(C)C)C1)[C@H](CC1(C(F)(F)F)CC1)CO2 (single isomer, unassigned) [Compound 61]",,,Ent. B Max Activity (%) (Table 10): +++ (+++ is >60%); EC50 [1]: < 1 µM
"Cc1cccc(C)c1-c1cc2nc(n1)NS(=O)(=O)c1cccc(c1)C(=O)N([C@H]1C[C@@H](NC(=O)OC(C)C)C1)[C@H](CC(C)C)CO2 (single isomer, unassigned) [Compound 63]",,,Ent. B Max Activity (%): +++ (+++ is >60%); EC50 (read-out: Ent. B EC50): < 1 µM
"Cc1cccc(C)c1-c1cc2nc(n1)NS(=O)(=O)c1cccc(c1)C(=O)N([C@H]1C[C@@H](NC(=O)OC(C)C)C1)[C@H](CC(C)C)CO2 (single isomer, unassigned) [Compound 64]",,,Ent. B Max Activity (%): +++ (+++ is >60%); EC50 (read-out: Ent. B EC50): < 1 µM
"COC(=O)NC1CC2(C1)CC(N1C(=O)c3cccc(c3)S(=O)(=O)Nc3nc(cc(-c4c(C)cccc4C)n3)OC[C@H]1CC(C)(C)C(F)(F)F)C2 (single isomer, unassigned) [Compound 75]",+++ (+++ is >60%),< 1,
"COC(=O)NC1CC2(C1)CC(N1C(=O)c3cccc(c3)S(=O)(=O)Nc3nc(cc(-c4c(C)cccc4C)n3)OC[C@H]1CC(C)(C)C(F)(F)F)C2 (single isomer, unassigned) [Compound 76]",+++ (+++ is >60%),< 1,
"COC(=O)NC1CC2(C1)CC(N1C(=O)c3cccc(c3)S(=O)(=O)Nc3nc(cc(-c4c(C)cccc4C)n3)OC[C@H]1CC(C)(C)C)C2 (single isomer, unassigned) [Compound 91]",+++ (+++ is >60%),< 1,
"Cc1cccc(C)c1-c1cc2nc(n1)NS(=O)(=O)c1cccc(c1)C(=O)N(C1CC3(CC(NC(=O)OC(C)C)C3)C1)[C@H](CC(C)(C)C)CO2 (single isomer, unassigned) [Compound 93]",+++ (+++ is >60%),< 1,
"COC(=O)NC1(C)CC2(CC(N3C(=O)c4cccc(c4)S(=O)(=O)Nc4nc(cc(-c5c(C)cccc5C)n4)OC[C@H]3CC(C)(C)C)C2)C1 (single isomer, unassigned) [Compound 95]",,,Ent. B Max Activity (%) (Table 10): +++ (+++ is >60%); EC50 [1]: < 1 µM
